Measurements from article PMC5218480 (PLoS ONE, 2017).

Tested on: MV-4-11 cells
Experiment: Gene expression microarray analysis (Affymetrix PrimeView) and GSEA
Format: cell-based, human
Details: gene VPS36; ACY-1035 1 mM; LIST F

How did the “RFU, VPS36 (ProbeSet 11739960_a_at)” value turn out when `Nc1ccc(-c2cccs2)cc1NC(=O)c1ccc2c(c1)cc(C1CC1)n2CCN1CCOCC1` [ACY-1035] was run?
Its value is 54.57 RFU.
